# Measurements: US8119624B2, “Fused phenyl amido heterocyclic compounds” (Pfizer Inc., priority 2006, dated 2012)
# Where two headings read alike, the source gives them in different places.
# Molecular target: T1, Full-length glucokinase (beta cell isoform) (Homo sapiens, UniProt P35557)
# T1 construct: Full-length glucokinase (beta cell isoform) was His-tagged at N-terminus; His tag (N); made in house
# T1 sequence (P35557 1-465): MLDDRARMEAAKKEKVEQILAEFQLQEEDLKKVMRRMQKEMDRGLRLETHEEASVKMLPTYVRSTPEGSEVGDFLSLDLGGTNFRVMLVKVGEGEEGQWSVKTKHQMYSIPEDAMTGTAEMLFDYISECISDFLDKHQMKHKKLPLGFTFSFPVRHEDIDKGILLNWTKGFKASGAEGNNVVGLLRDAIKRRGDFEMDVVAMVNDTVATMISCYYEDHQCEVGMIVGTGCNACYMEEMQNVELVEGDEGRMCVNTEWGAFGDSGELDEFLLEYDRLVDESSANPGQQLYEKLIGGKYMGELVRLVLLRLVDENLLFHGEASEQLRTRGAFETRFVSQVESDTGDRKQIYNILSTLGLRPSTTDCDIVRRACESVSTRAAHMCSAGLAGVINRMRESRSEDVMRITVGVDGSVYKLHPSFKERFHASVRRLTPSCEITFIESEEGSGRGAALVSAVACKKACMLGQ
# Test: Glucokinase biochemical assay (PK/LDH-coupled, NADH depletion at 340 nm): % activation, EC50, % max activation
# Details: 5 mM glucose; for activation at 10 µM: read-out: % Activation at 10 uM; for EC50: read-out: EC50; for Emax: read-out: % Max Activation
# Outline: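 N-terminally His-tagged full-length human beta-cell glucokinase, room temperature, 5 mM glucose, 1 mM ATP, PK/LDH-coupled with 0.7 mM NADH, 1% DMSO final. Initial velocity from the 200–900 s slope of A340 decline. % activation = (Va/Vo−1)×100, measured across compound concentrations.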
# [1] = 10 uM compound, % Activation=(Va/Vo−1)×100
# [2] = compound at 10 uM, 1 mM ATP, room temperature
Structure (SMILES),activation at 10 µM [1] [%],EC50 (GK activation) [nM],Emax (fitted maximum activation) [%],further results
"CN(C)C(=O)c1ccc(Oc2cc(C(=O)Nc3ccn(C)n3)cc3c2CC(C)(C)O3)c(F)c1 [Example 46, 4-(4-Dimethylcarbamoyl-2-fluoro-phenoxy)-2,2-dimethyl-2,3-dihydro-benzofuran-6-carboxylic acid(1-methyl-1H-pyrazol-3-yl)-amide]",118,310,138,–
"Cn1ccc(NC(=O)c2cc(Oc3ccc(C#N)nc3)c3c(c2)OC(C)(C)C3)n1 [Example 181, 4-(6-Cyano-pyridin-3-yloxy)-2,2-dimethyl-2,3-dihydro-benzofuran-6-carboxylic acid (1-methyl-1H-pyrazol-3-yl)-amide]",171,1100,182,–
"Cn1ccc(NC(=O)c2cc(Oc3ccc(S(C)(=O)=O)cc3Cl)c3c(c2)OC(C)(C)C3)n1 [Example 137, 4-(2-Chloro-4-methanesulfonyl-phenoxy)-2,2-dimethyl-2,3-dihydro-benzofuran-6-carboxylic acid (1-methyl-1H-pyrazol-3-yl)-amide]",212,270,218,–
"CN(C)C(=O)c1ccc(Oc2cc(C(=O)Nc3ccn(C)n3)cc3ccoc23)cc1 [Example 334, 7-{4-[(Dimethylamino)carbonyl]phenoxy}-N-(1-methyl-1H-pyrazol-3-yl)-1-benzofuran-5-carboxamide]",35,–,–,–
"CN(C)C(=O)c1ccc(Oc2cc(C(=O)Nc3ccc(CNC4CC4)cn3)cc3c2CC(C)(C)O3)cc1F [Example 147, 4-(4-Dimethylcarbamoyl-3-fluoro-phenoxy)-2,2-dimethyl-2,3-dihydro-benzofuran-6-carboxylic acid (5-cyclopropylaminomethyl-pyridin-2-yl)-amide]",35,–,–,–
"Cc1ccc(NC(=O)c2cc(Oc3ccc(S(C)(=O)=O)cc3)cc3occc23)nc1 [Example 7, 6-(4-Methanesulfonyl-phenoxy)-benzofuran-4-carboxylic acid(5-methyl-pyridin-2-yl)-amide]",99.7,3700,129,–
"CN(CC#N)C(=O)c1ccc(Oc2cc(C(=O)Nc3ccn(C)n3)cc3c2CC(C)(C)O3)cc1F [Example 67, 4-[4-(Cyanomethyl-methyl-carbamoyl)-3-fluoro-phenoxy]-2,2-dimethyl-2,3-dihydro-benzofuran-6-carboxylic acid(1-methyl-1H-pyrazol-3-yl)-amide]",131,66,130,–
"Cc1ccc(NC(=O)c2cc(OCc3ccccc3Cl)c3c(c2)OC(C)(C)CC3)nc1 [Example 374, 5-(2-Chloro-benzyloxy)-2,2-dimethyl-chroman-7-carboxylic acid(5-methyl-pyridin-2-yl)-amide]",–,–,–,% Activation at 10 uM [1]: 17.7%
"CCn1ncc(NC(=O)c2cc(Oc3ccc(S(C)(=O)=O)cc3)c3c(c2)OC(C)(C)C3)n1 [Example 29, 4-(4-Methanesulfonyl-phenoxy)-2,2-dimethyl-2,3-dihydro-benzofuran-6-carboxylic acid(2-ethyl-2H-[1,2,3]triazol-4-yl)-amide]",284,250,255,–
"Cc1ccc(NC(=O)c2cc(Oc3ccc(S(C)(=O)=O)cc3)c3cc(C)sc3c2)nc1 [Example 359, 4-(4-Methanesulfonyl-phenoxy)-2-methyl-benzo[b]thiophene-6-carboxylic acid (5-methyl-pyridin-2-yl)-amide]",69.9,190,70,–
"Cn1ccc(NC(=O)c2cc(Oc3ccc(S(C)(=O)=O)cc3F)c3c(c2)OC(C)(C)C3)n1 [Example 121, 4-(2-Fluoro-4-methanesulfonyl-phenoxy)-2,2-dimethyl-2,3-dihydro-benzofuran-6-carboxylic acid (1-methyl-1H-pyrazol-3-yl)-amide]",124,500,152,–
"CN(C)S(=O)(=O)c1cc(F)c(Oc2cc(C(=O)Nc3cnn(C)n3)cc3c2CC(C)(C)O3)cc1F [Example 138, 4-(4-Dimethylsulfamoyl-2,5-difluoro-phenoxy)-2,2-dimethyl-2,3-dihydro-benzofuran-6-carboxylic acid (2-methyl-2H-[1,2,3]triazol-4-yl)-amide]",218,340,224,–
"CN(C)C(=O)c1ccc(Oc2cc(C(=O)Nc3cnn(C)n3)cc3c2CC(C)(C)O3)cc1 [Example 153, 4-(4-Dimethylcarbamoyl-phenoxy)-2,2-dimethyl-2,3-dihydro-benzofuran-6-carboxylic acid (2-methyl-2H-[1,2,3]triazol-4-yl)-amide]",168,150,161,–
"COCCN1Cc2c(Oc3ccc(S(C)(=O)=O)cc3)cc(C(=O)Nc3ccc(C)cn3)cc2C1=O [Example 387, 2-(2-Methoxyethyl)-N-(5-methylpyridin-2-yl)-7-(4-(methylsulfonyl)-phenoxy)-3-oxoisoindoline-5-carboxamide]",–,–,–,"EC50 (1 mM ATP, room temperature): > 10000 nM; activation at 10 µM [2]: 42.9%"
"Cn1ccc(NC(=O)c2cc(Oc3ccc(C(=O)N4CCC4)cc3)c3c(c2F)OC(C)(C)C3)n1 [Example 191, 4-[4-(Azetidine-1-carbonyl)-phenoxy]-7-fluoro-2,2-dimethyl-2,3-dihydro-benzofuran-6-carboxylic acid (1-methyl-1H-pyrazol-3-yl)-amide]",91.2,1700,119,–
"Cc1ccc(NC(=O)c2cc(Oc3ccc(S(C)(=O)=O)cc3)c3ncsc3c2)nc1 [Example 371, N-(5-Methylpyridin-2-yl)-4-[4-(methylsulfonyl)phenoxy]-1,3-benzothiazole-6-carboxamide]",35.5,–,–,–
"Cc1ccc(NC(=O)c2cc(Oc3ccc(S(C)(=O)=O)cc3)c3cc(C)oc3c2)nc1 [Example 252, 2-Methyl-N-(5-methylpyridin-2-yl)-4-(4-(methylsulfonyl)-phenoxy)-benzofuran-6-carboxamide]",108,778,107,–
"Cc1cc2cc(C(=O)Nc3ccn(C)n3)cc(Oc3ccc(S(C)(=O)=O)cc3)c2o1 [Example 338, 2-Methyl-N-(1-methyl-1H-pyrazol-3-yl)-7-[4-(methylsulfonyl)-phenoxy]-1-benzofuran-5-carboxamide]",84.5,4300,147,–
"Cc1ccc(NC(=O)c2cc(Oc3ccc(C(=O)N(C)C)c(F)c3)c3ccoc3c2)nc1 [Example 342, 4-(4-(Dimethylcarbamoyl)-3-fluorophenoxy)-N-(5-methylpyridin-2-yl)benzofuran-6-carboxamide]",15,–,–,–
"Cn1ccc(NC(=O)c2cc(Oc3ccc(C(=O)N4CCC4)c(F)c3)c3c(c2)OC(C)(C)C3)n1 [Example 33, 4-[4-(Azetidine-1-carbonyl)-3-fluoro-phenoxy]-2,2-dimethyl-2,3-dihydro-benzofuran-6-carboxylic acid(1-methyl-1H-pyrazol-3-yl)-amide]",–,66.1,–,% Activation at 10 uM [1]: 170%; % Max Activation (fitted maximum activation): 171%
"CC(CN1CCOCC1)Oc1cc(C(=O)Nc2ccn(C)n2)cc2c1CC(C)(C)O2 (centres unmarked) [Example 85, 2,2-Dimethyl-4-(1-methyl-2-morpholin-4-yl-ethoxy)-2,3-dihydro-benzofuran-6-carboxylic acid (1-methyl-1H-pyrazol-3-yl)-amide]",12,–,–,–
"Cc1ccc(NC(=O)c2cc(OC(C)C)cc3oc(-c4ccccc4)cc23)nc1 [Example 347, 6-Isopropoxy-N-(5-methylpyridin-2-yl)-2-phenylbenzofuran-4-carboxamide]",113,160,158,–
"Cn1ccc(NC(=O)c2cc(Oc3ccc(C(=O)N4CCC4)c(F)c3)c3c(c2)OC(C)(CO)C3)n1 (centres unmarked) [Example 241, 4-[4-(Azetidine-1-carbonyl)-3-fluoro-phenoxy]-2-hydroxymethyl-2-methyl-2,3-dihydro-benzofuran-6-carboxylic acid (1-methyl-1H-pyrazol-3-yl)-amide]",127,58,135,–
"Cc1ccc(NC(=O)c2cc(Oc3ccc(S(C)(=O)=O)cc3)c3c(c2)C(=O)N(C2CC2)C3)nc1 [Example 385, 2-Cyclopropyl-N-(5-methylpyridin-2-yl)-7-(4-(methylsulfonyl)-phenoxy)-3-oxoisoindoline-5-carboxamide]",–,–,–,"EC50 (1 mM ATP, room temperature): 4500 nM; activation at 10 µM [2]: 93.2%; Emax (fitted maximum activation, 1 mM ATP): 107%"
"CN(C)C(=O)c1ccc(Oc2cc(C(=O)Nc3cnn(C)n3)cc3c2CC(C)(C)O3)cc1F [Example 142, 4-(4-Dimethylcarbamoyl-3-fluoro-phenoxy)-2,2-dimethyl-2,3-dihydro-benzofuran-6-carboxylic acid (2-methyl-2H-[1,2,3]triazol-4-yl)-amide]",145,52.8,130,–
